One may read the IC50 as the concentration that inhibits the measured activity by half.

These results are taken from patent US20230295162A1 (EÖTVÖS LORÁND TUDOMÁNYEGYETEM, priority 2020, published 2023).

The test system of data set [1] is Panc-1 human cell line. In words: Cytotoxicity on Panc-1, xCELLigence SP, IC50 after 24 h, 48 h, 72 h and 96 h (Example 22).
Data set [2] concerns Panc-1 (pancreas, carcinoma) cells. Description: Cell viability assay, CellTiter-Glo (Example 21). The class given is cell-based, human. The settings on record: 72 h treatment. As for the experimental part: (§1) Effect of the selected compounds on cancer cell viability was measured via CellTiter-Glo® luminescent cell viability assay (Promega, Madison, WI, USA) according to the manufacturer's instructions. Cells were plated onto a flat-bottomed, white 96 well plate (BRANDplates®, cat. no.: 781965). Density of the seeded cells was optimized based on their size and growth rate, as the follows: Panc-1:750 cells/well; DU 145, PC-3, Capan-1, MIA PaCa-2, SCC-25, FaDu and EBC-1: 1000 cells/well; LNCaP, Detroit 562, MDA-MB-231 and MDA-MB-453 1500 cells/well. […] After the treatment, the luminescence signal was recorded using a microplate reader (BioTek Synergy 2 Multi-Mode Reader, BioTek, Winooski, VT, USA). Dose-response curves were generated by GraphPad Prism 8.4.2. software using a non-linear regression model (variable slope, four parameters), (see FIGS. 12-51).
For orientation: In ATP-based viability assays light output follows the ATP content of the culture.

Data set [3] has as its system LNCaP (prostate, carcinoma) cells. In words: Cell viability assay, CellTiter-Glo (Example 21). The following applies: 72 h. It counts as cell-based, human. The procedure:
as §1

In data set [4] the test system is MDA-MB-453 (breast, carcinoma) cells. Description: Cell viability assay, CellTiter-Glo (Example 21). It counts as cell-based, human. The settings on record: 72 h treatment. As for the experimental part: as §1
Data set [5] relates to PC-3 (prostate, adenocarcinoma) cells. In words: Cell viability assay, CellTiter-Glo (Example 21). The settings on record: 72 h treatment. The class given is cell-based, human. The procedure:
as §1

Data set [6] has as its system EBC-1 (lung, squamous cell carcinoma) cells. In words: Cell viability assay, CellTiter-Glo (Example 21). It counts as cell-based, human. The settings on record: 72 h treatment. The procedure: as §1
Data set [7] deals with MDA-MB-231 (breast, adenocarcinoma) cells. Description: Cell viability assay, CellTiter-Glo (Example 21). It counts as cell-based, human. The settings on record: 72 h treatment. As for the experimental part:
as §1

For data set [8], the system named is SCC-25 (tongue, squamous cell carcinoma) cells. Description: Cell viability assay, CellTiter-Glo (Example 21). The settings on record: 72 h treatment. It counts as cell-based, human. The procedure:
as §1

The test system of data set [9] is Detroit 562 (pharynx, carcinoma) cells. In words: Cell viability assay, CellTiter-Glo (Example 21). The class given is cell-based, human. The settings on record: 72 h treatment. As for the experimental part: as §1
Data set [10] deals with MIA PaCa-2 (pancreas, carcinoma) cells. In words: Cell viability assay, CellTiter-Glo (Example 21). The class given is cell-based, human. The settings on record: 72 h treatment. The procedure: as §1
In data set [11] the test system is DU 145 (prostate, carcinoma) cells. In words: Cell viability assay, CellTiter-Glo (Example 21). It counts as cell-based, human. The settings on record: 72 h. As for the experimental part:
as §1

Data set [12] has as its system FaDu (pharynx, squamous cell carcinoma) cells. Description: Cell viability assay, CellTiter-Glo (Example 21). It counts as cell-based, human. The settings on record: 72 h treatment. The procedure:
as §1

In data set [13] the test system is Capan-1 (pancreas, adenocarcinoma) cells. Description: Cell viability assay, CellTiter-Glo (Example 21). The class given is cell-based, human. The settings on record: 72 h treatment. The procedure:
as §1

Data set [14] deals with A2058 (human metastatic melanoma) cells. In words: Colorimetric alamarBlue assay, long treatment. The following applies: Homo sapiens, A2058, 72 h, read-out: cytotoxicity expressed in IC50, A-2058. On the technique in general: Resazurin is reduced to fluorescent resorufin, in cell work by metabolically active cells.
Data set [15] concerns COLO-205 (human colorectal adenocarcinoma) cells. Description: Colorimetric alamarBlue assay, long treatment. The following applies: COLO 205, 72 h, read-out: cytotoxicity expressed in IC50, COLO-205.
Data set [16] deals with PANC-1 (human pancreatic carcinoma) cells. Description: Impedance-based viability assay (xCELLigence SP), long treatment. The class given is cell-based. The following applies: 72 h, read-out: cytotoxicity expressed in IC50, PANC-1. The text has this: (Gibco®/Invitrogen Corporation, New York, NY, USA).
Data obtained from each experiment represent mathematical averages.

Data set [17] has as its system EBC-1 lung cancer cell line. In words: High-throughput screening, CellTiter-Glo cell viability assay at 100 nM. The class given is cell-based, human. The following applies: Homo sapiens, EBC-1, HTS, compounds at 100 nM, 72 h, read-out: cytotoxicity expressed in IC50, EBC-1 (results of High throughput screening). The procedure: (§2) EBC-1 (obtained from JRCB, https://cellbank.nibiohn.go.jp/english/) and H2228 (obtained from ATCC https://www.lgcstandards-atcc.org/) cell lines were maintained according to the instructions provided by JRCB and ATCC in a 5% CO2 humidified incubator maintained at 37° C. temperature. Effect of compounds on cell viability was measured via CellTiter-Glo® luminescent cell viability assay (Promega, Madison, WI, USA). Cells were plated at 1000 cells/well onto a flat-bottomed, white 96 well plate (BRANDplates, cat. no.: 781965). After 24 h, cells were treated for 72 h with the compounds at 100 nM concentration. After the treatment, medium was removed and CellTiter-Glo® reagent was added. Untreated cells were used as control. The luminescence signal was recorded using a microplate reader (BioTek Synergy 2 Multi-Mode Reader, BioTek, Winooski, VT, USA). Cell viability data (% of untreated control cells) was evaluated with Microsoft Excel.

In data set [18] the test system is H2228 lung cancer cell line. Described as above. The class given is cell-based, human. The settings on record: Homo sapiens, NCI-H2228, HTS, compounds at 100 nM, 72 h, read-out: cytotoxicity expressed in IC50, H2228 (results of High throughput screening). The procedure:
as §2

Molecules are shown by their SMILES. Like-named read-outs stand apart in the source and are kept apart here. Bounds are passed on as bounds.

Consider `[N-]=[N+]=Nc1cccc(CN2CCC3=C(C2)C(=O)N(Cc2ccc(Cl)cc2)C2=NCCN23)c1` [I/133], for which the IC50 turned out to be 9.05 ± 0.669 nM in data set [1] (PANC-1, 72 h, read-out: IC50 (72 h) [nM]) and 4.73 ± 0.109 nM in data set [1] (PANC-1, 96 h, read-out: IC50 (96 h) [nM]). Moreover, the “Panc-1 (pancreas, carcinoma) cell viability (% of control)” value in data set [2] (3.7 nM) is on record as 108.9 ± 10.2 % of control; in data set [2] (11.1 nM) it was 94.1 ± 4.0 % of control; in data set [2] (100 nM) it was 56.1 ± 3.7 % of control; in [2] (300 nM), 55.7 ± 2.5 % of control. Moreover, the LNCaP cell viability in [3] (3.7 nM) was 95.9 ± 6.1 % of control; in data set [3] (11.1 nM) it was 33.4 ± 3.1 % of control; in data set [3] (100 nM) it was 12.3 ± 1.1 % of control; in [3] (300 nM), 13.3 ± 1.2 % of control. For the same compound, the “MDA-MB-453 (breast, carcinoma) cell viability (% of control)” value in [4] (3.7 nM) is listed as 108.6 ± 19.7 % of control; in data set [4] (11.1 nM), 50.1 ± 10.6 % of control; in [4] (100 nM) it was 31.9 ± 1.3 % of control; in data set [4] (300 nM) it was 31.7 ± 0.5 % of control. The “PC-3 (prostate, adenocarcinoma) cell viability (% of control)” value in [5] (3.7 nM) is reported as 105.6 ± 1.8 % of control; in data set [5] (11.1 nM) it was 83.5 ± 6.4 % of control; in data set [5] (100 nM) it was 32.6 ± 3.3 % of control; in [5] (300 nM), 32.9 ± 4.6 % of control. Further, the “EBC-1 (lung, squamous cell carcinoma) cell viability (% of control)” value is 97.1 ± 6.0 % of control in [6] (3.7 nM), 60.1 ± 6.7 % of control in [6] (11.1 nM), 23.2 ± 0.7 % of control in [6] (100 nM) and 22.2 ± 1.3 % of control in data set [6] (300 nM). The “MDA-MB-231 (breast, adenocarcinoma) cell viability (% of control)” value in data set [7] (3.7 nM) is recorded as 101.4 ± 2.0 % of control; in data set [7] (11.1 nM), 100.4 ± 2.9 % of control; in data set [7] (100 nM) it was 58.2 ± 2.5 % of control; in data set [7] (300 nM), 56.4 ± 3.5 % of control. The “SCC-25 (tongue, squamous cell carcinoma) cell viability (% of control)” value is recorded as 102.3 ± 4.2 % of control in data set [8] (3.7 nM), 72.9 ± 3.0 % of control in [8] (11.1 nM), 34.7 ± 4.9 % of control in [8] (100 nM) and 40.9 ± 3.7 % of control in [8] (300 nM). Further, the “Detroit 562 (pharynx, carcinoma) cell viability (% of control)” value in [9] (3.7 nM) is reported as 47.1 ± 16.0 % of control; in data set [9] (11.1 nM) it was 31.1 ± 6.5 % of control; in data set [9] (100 nM) it was 28.8 ± 3.6 % of control; in data set [9] (300 nM), 31.3 ± 4.1 % of control. Also, the “MIA PaCa-2 (pancreas, carcinoma) cell viability (% of control)” value is listed as 104.0 ± 17.3 % of control in data set [10] (3.7 nM), 92.1 ± 13.2 % of control in data set [10] (11.1 nM), 18.4 ± 7.8 % of control in data set [10] (100 nM) and 17.4 ± 7.9 % of control in data set [10] (300 nM). The “DU 145 cell viability” value in [11] (3.7 nM) was 98.8 ± 6.7 % of control; in [11] (11.1 nM), 45.7 ± 4.4 % of control; in data set [11] (100 nM) it was 8.0 ± 2.0 % of control; in data set [11] (300 nM), 8.1 ± 2.6 % of control. Moreover, the “FaDu (pharynx, squamous cell carcinoma) cell viability (% of control)” value in data set [12] (3.7 nM) is reported as 100.0 ± 6.2 % of control; in data set [12] (11.1 nM), 70.7 ± 13.1 % of control; in data set [12] (100 nM) it was 25.3 ± 6.4 % of control; in data set [12] (300 nM), 24.6 ± 6.8 % of control. Further, the “Capan-1 (pancreas, adenocarcinoma) cell viability (% of control)” value in [13] (3.7 nM) was 108.3 ± 8.3 % of control; in data set [13] (11.1 nM), 98.8 ± 7.9 % of control; in data set [13] (100 nM), 32.6 ± 4.0 % of control; in [13] (300 nM), 34.0 ± 2.8 % of control.

For `NCc1cccc(CN2C(=O)C3=C(CCN(Cc4ccc(C(F)(F)F)cc4)C3)N3CCN=C23)c1` [I/68], the IC50 is greater than 10000 nM in [14]; greater than 10000 nM in [15]; greater than 10000 nM in [16]; greater than 100 nM in [17]; greater than 100 nM in data set [18].

On to `O=C1C2=C(CCN(Cc3ccccc3)C2)N2CCN=C2N1Cc1ccccc1F` [I/2, reference compound], for which the IC50 in data set [14] is 2950 nM; in [15] it was 9970 nM; in data set [16], 4180 nM; in data set [17], greater than 100 nM; in data set [18] it was greater than 100 nM.
